Patent US20250339409A1, “USES OF PAN BET INHIBITORS” (VYNE THERAPEUTICS INC., priority 2021, published 2025)
In brackets after ≈: the same amount, converted by molar mass. Where two headings read alike, the source gives them in different places.

Key:
[1] = Solubility of BETi1 in water (HPLC) and in solvents (visual observation); type: physicochemical
Method: The resulting sample, still containing solid BETi1, was filtered and analyzed by HPLC for assay of BETi1 in solution. Solubility of BETi in water was determined to be about 0.005 mg/gram or 0.5 mg/100 mL water (1 ml=1 g) using HPLC (Table 41A).
To characterize the solubility of BETi in other solvents, about 5 mg of BETi1 was weighed into a 2 ml glass vial. 20 μL aliquots of each of the solvent listed in Table 41B was added to dissolve the drug substance at 25° C. Vortex and sonication were applied to assist dissolution. Approximate solubility was determined by visual observation and reported in […]

[2] = Toxicokinetics in dogs after intra-articular injection: plasma concentrations; type: in vivo, Beagle dogs; conditions: dog; for AUC(0-t) / Cmax / Tmax / concentration at 1 h / concentration at 2 h / concentration at 4 h / concentration at 8 h / concentration at 24 h / concentration at 336 h / concentration at 504 h / concentration at 672 h / concentration at 4 weeks: Beagle, plasma; for AUC(0-t): read-out: Plasma AUC0-672 h; for concentration at 1 h / concentration at 2 h / concentration at 4 h / concentration at 8 h / concentration at 24 h / concentration at 336 h / concentration at 504 h / concentration at 672 h / concentration at 4 weeks: other: intra-articular injection; for concentration at 1 h / concentration at 2 h / concentration at 4 h / concentration at 8 h / concentration at 24 h / concentration at 336 h / concentration at 504 h / concentration at 672 h: read-out: Plasma concentration of BETi1; for concentration at 4 weeks: read-out: plasma level at four weeks post-treatment
[3] = Toxicokinetics in dogs after intra-articular injection: synovial fluid concentrations; type: in vivo, Beagle dogs; parameters: Synovial concentration of BETi1: unit not given here; conditions: for AUC(0-t) / Cmax / Tmax / concentration at 4 weeks: Beagle, dog, synovial fluid; for AUC(0-t): read-out: Synovia AUC0-672 h; for concentration at 4 weeks: other: intra-articular injection, read-out: synovial level at four weeks post-treatment
Method: 16 Beagle dogs (8 males, 8 females) were assigned to four treatment groups to determine toxicity of BETi1 formulations following intra-articular injection.
The experimental groups are presented below: • Group 1: Control; 0 mg of BETi1/animal dose • Group 2: Low Dose; 7.5 mg of BETi1/animal dose • Group 3: Mid Dose; 75 mg of BETi1/animal dose • Group 4: High Dose; 150 mg of BETi1/animal dose
The control and BETi1 dose formulations were comprised as follows: Control: Vehicle (0.5% sodium carboxymethylcellulose; 0.1% polysorbate 80 in saline) • Low Dose: 0.75% w/w BETi1 suspended in Vehicle • Mid Dose: 7.5% w/w BETi1 suspended in Vehicle • High Dose: 15% w/w BETi1 suspended in Vehicle
Study dogs were administered control treatment or treatment with a BETi1 formulation via intra-articular injection only to their right knee joints. Dosage volume was 1 mL/knee.
Approximately 80 μL of synovial fluid was collected from animals from the right knee joint and placed into appropriately labeled tubes onto wet ice. Synovia was then transferred into labeled clear polypropylene tubes and frozen in the upright position over dry ice and stored in a freezer set to maintain <−60° C. until shipped on dry ice for analysis.
Quantification of BETi1 concentrations in plasma and synovial fluid was performed using a qualified liquid chromatographic triple quadrupole mass spectrometric (LC-MS/MS) method. Synovial fluids were centrifuged before analysis.
Toxicokinetic (TK) analysis of BETi1 plasma concentration-time and synovial fluid concentration-time data was performed. TK parameter values including maximum plasma/synovial fluid concentrations (Cmax), time to reach maximum concentrations (Tmax), and area under the plasma/synovial fluid concentrations vs. time curve (AUC) from time zero to 672-hour (AUC0-672h) was determined. Values that were below the lower limit of quantification (BLQ) were set to zero in the calculation of mean concentrations. When more than half of individual values at a single time point were BLQ, mean values were reported as BLQ.

[4] = 7.5 mg/animal, Male, Study Day 1
[5] = 75 mg/animal, Female, Study Day 1
[6] = 75 mg/animal, Male, Study Day 1
[7] = 150 mg/animal, Female, Study Day 1
[8] = 150 mg/animal, Male, Study Day 1
[9] = both sexes, 7.5 mg/animal, 7.5 mg intra-articular
[10] = both sexes, 75 mg/animal, 75 mg intra-articular
[11] = both sexes, 150 mg/animal, 150 mg intra-articular
[12] = both sexes, 75 mg/animal, intra-articular, 75 mg
[13] = both sexes, 150 mg/animal, intra-articular, 150 mg

## Cn1cc(-c2cccc(O)c2Oc2ccccc2)c2cc[nH]c2c1=O [BETi1]
[1]; isopropanol
  solubility: slightly soluble
[1]; organic solvent or mixture, thermodynamic from solid, 1,4-Dioxane, 25° C., visual observation, read-out: Approximate solubility
  solubility: 104 mg/mL (≈ 313 mM)
[1]; organic solvent or mixture, thermodynamic from solid, Acetone, 25° C., visual observation, read-out: Approximate solubility
  solubility: 15 mg/mL (≈ 45.1 mM)
[1]; organic solvent or mixture, thermodynamic from solid, Acetonitrile, 25° C., visual observation, read-out: Approximate solubility
  solubility: < 5 mg/mL
[1]; organic solvent or mixture, thermodynamic from solid, Anisole, 25° C., visual observation, read-out: Approximate solubility
  solubility: < 5 mg/mL
[1]; organic solvent or mixture, thermodynamic from solid, Dichloromethane, 25° C., visual observation, read-out: Approximate solubility
  solubility: < 5 mg/mL
[1]; organic solvent or mixture, thermodynamic from solid, Ethanol, 25° C., visual observation, read-out: Approximate solubility
  solubility: 12 mg/mL (≈ 36.1 mM)
[1]; organic solvent or mixture, thermodynamic from solid, Ethyl acetate, 25° C., visual observation, read-out: Approximate solubility
  solubility: < 5 mg/mL
[1]; organic solvent or mixture, thermodynamic from solid, Heptane, 25° C., visual observation, read-out: Approximate solubility
  solubility: < 5 mg/mL
[1]; organic solvent or mixture, thermodynamic from solid, IPAc, 25° C., visual observation, read-out: Approximate solubility
  solubility: < 5 mg/mL
[1]; organic solvent or mixture, thermodynamic from solid, Isopropanol, 25° C., visual observation, read-out: Approximate solubility
  solubility: 6 mg/mL (≈ 18.1 mM)
[1]; organic solvent or mixture, thermodynamic from solid, Methanol, 25° C., visual observation, read-out: Approximate solubility
  solubility: 21 mg/mL (≈ 63.2 mM)
[1]; organic solvent or mixture, thermodynamic from solid, Methyl ethyl ketone, 25° C., visual observation, read-out: Approximate solubility
  solubility: 12 mg/mL (≈ 36.1 mM)
[1]; organic solvent or mixture, thermodynamic from solid, Tetrahydrofuran, 25° C., visual observation, read-out: Approximate solubility
  solubility: 104 mg/mL (≈ 313 mM)
[1]; organic solvent or mixture, thermodynamic from solid, t-Butyl methyl ether, 25° C., visual observation, read-out: Approximate solubility
  solubility: < 5 mg/mL
[1]; polyethylene glycol 400, methanol, ethanol, acetone and methyl ethyl ketone
  solubility: sparingly soluble
[1]; polyethylene glycol 400, organic solvent or mixture, read-out: solubility in polyethylene glycol 400
  solubility: ~20 mg/mL (≈ 60.2 mM)
[1]; tetrahydrofurane and 1,4-dioxane
  solubility: freely soluble
[1]; thermodynamic from solid, Water, 25° C., HPLC, read-out: Approximate solubility
  solubility at 5 h: 0.005 mg/mL (≈ 0.015 mM)
[1]; water, ethyl acetate, acetonitrile, IPAc, t-Butyl methyl ether, heptane, dichloromethane or anisole
  solubility: insoluble
[1]; water, as stated in the dog study, read-out: water solubility limit
  solubility at 5 h: 0.05 mg/mL (≈ 0.15 mM)
[2]; 7.5 mg/animal, Female, Study Day 1
  AUC(0-t): 0.472 µg·h/mL
[2]; 7.5 mg/animal, Female, Study Day 1, read-out: Plasma Cmax
  Cmax: 0.0376 µg/mL
[2]; 7.5 mg/animal, Female, Study Day 1, read-out: Plasma Tmax
  Tmax: 1.5 h
[2]; [4]
  AUC(0-t): 0.39 µg·h/mL
[2]; 7.5 mg/animal, Male, Study Day 1, read-out: Plasma Cmax
  Cmax: 0.0321 µg/mL
[2]; 7.5 mg/animal, Male, Study Day 1, read-out: Plasma Tmax
  Tmax: 4 h
[2]; [5]
  AUC(0-t): 3.76 µg·h/mL
[2]; 75 mg/animal, Female, Study Day 1, read-out: Plasma Cmax
  Cmax: 0.0566 µg/mL
[2]; 75 mg/animal, Female, Study Day 1, read-out: Plasma Tmax
  Tmax: 2 h
[2]; [6]
  AUC(0-t): 3.07 µg·h/mL
[2]; 75 mg/animal, Male, Study Day 1, read-out: Plasma Cmax
  Cmax: 0.0502 µg/mL
[2]; 75 mg/animal, Male, Study Day 1, read-out: Plasma Tmax
  Tmax: 2 h
[2]; [7]
  AUC(0-t): 5.99 µg·h/mL
[2]; 150 mg/animal, Female, Study Day 1, read-out: Plasma Cmax
  Cmax: 0.0529 µg/mL
[2]; 150 mg/animal, Female, Study Day 1, read-out: Plasma Tmax
  Tmax: 5 h
[2]; [8]
  AUC(0-t): 3.81 µg·h/mL
[2]; 150 mg/animal, Male, Study Day 1, read-out: Plasma Cmax
  Cmax: 0.0488 µg/mL
[2]; 150 mg/animal, Male, Study Day 1, read-out: Plasma Tmax
  Tmax: 2 h
[2]; [9]
  concentration at 1 h: 0.0296 µg/mL
  concentration at 2 h: 0.0326 µg/mL
  concentration at 4 h: 0.0261 µg/mL
  concentration at 8 h: 0.0159 µg/mL
  concentration at 24 h: 0.00202 µg/mL
  concentration at 336 h: 0 µg/mL
  concentration at 504 h: 0 µg/mL
  concentration at 672 h: 0 µg/mL
[2]; [10]
  concentration at 1 h: 0.0491 µg/mL
  concentration at 2 h: 0.0534 µg/mL
  concentration at 4 h: 0.0394 µg/mL
  concentration at 8 h: 0.0381 µg/mL
  concentration at 24 h: 0.0135 µg/mL
  concentration at 336 h: 0.00195 µg/mL
  concentration at 504 h: 0.000835 µg/mL
  concentration at 672 h: 0.000505 µg/mL
[2]; [11]
  concentration at 1 h: 0.0423 µg/mL
  concentration at 2 h: 0.0488 µg/mL
  concentration at 4 h: 0.0358 µg/mL
  concentration at 8 h: 0.0483 µg/mL
  concentration at 24 h: 0.0209 µg/mL
  concentration at 336 h: 0.00472 µg/mL
  concentration at 504 h: 0.00219 µg/mL
  concentration at 672 h: 0.00172 µg/mL
[2]; [12]
  concentration at 4 weeks: 0.002 µM
[2]; [13]
  concentration at 4 weeks: 0.005 µM
[2]; both sexes, intra-articular, calculated, read-out: Tmax, plasma (converted)
  Tmax: ~120 h
[2]; both sexes, intra-articular, read-out: Cmax, plasma
  Cmax: 0.05 µg/mL
[2]; intra-articular
  clearance indicated by plasma levels: rapid clearance with a reduction being seen after 4 hours
  plasma AUC lower compared to synovial levels: ~2000 ×
  plasma Cmax lower compared to synovial levels: ~1000 ×
[3]; 7.5 mg intra-articular, 72 h (day 3)
  Synovial concentration of BETi1: 125.625
[3]; 7.5 mg intra-articular, 336 h (day 14)
  Synovial concentration of BETi1: 0
[3]; 7.5 mg intra-articular, 504 h (day 21)
  Synovial concentration of BETi1: 0
[3]; 7.5 mg intra-articular, 672 h (day 28), in ng/mL
  Synovial concentration of BETi1: 0.685
[3]; 7.5 mg intra-articular, […] (day 7)
  Synovial concentration of BETi1: 1.58
[3]; 75 mg intra-articular, 72 h (day 3)
  Synovial concentration of BETi1: 27050
[3]; 75 mg intra-articular, 336 h (day 14)
  Synovial concentration of BETi1: 6805
[3]; 75 mg intra-articular, 504 h (day 21)
  Synovial concentration of BETi1: 937
[3]; 75 mg intra-articular, 672 h (day 28)
  Synovial concentration of BETi1: 316
[3]; 75 mg intra-articular, […] (day 7)
  Synovial concentration of BETi1: 33700
[3]; 150 mg intra-articular, 72 h (day 3)
  Synovial concentration of BETi1: 47600
[3]; 150 mg intra-articular, 336 h (day 14)
  Synovial concentration of BETi1: 18070
[3]; 150 mg intra-articular, 504 h (day 21)
  Synovial concentration of BETi1: 7765
[3]; 150 mg intra-articular, 672 h (day 28)
  Synovial concentration of BETi1: 4375
[3]; 150 mg intra-articular, […] (day 7)
  Synovial concentration of BETi1: 36000
[3]; [4]
  AUC(0-t): 25.4 µg·h/mL
[3]; 7.5 mg/animal, Male, Study Day 1, read-out: Synovia Cmax
  Cmax: 0.244 µg/mL
[3]; 7.5 mg/animal, Male, Study Day 1, read-out: Synovia Tmax
  Tmax: 120 h
[3]; [5]
  AUC(0-t): 6090 µg·h/mL
[3]; 75 mg/animal, Female, Study Day 1, read-out: Synovia Cmax
  Cmax: 43.7 µg/mL
[3]; 75 mg/animal, Female, Study Day 1, read-out: Synovia Tmax
  Tmax: 120 h
[3]; [6]
  AUC(0-t): 7890 µg·h/mL
[3]; 75 mg/animal, Male, Study Day 1, read-out: Synovia Cmax
  Cmax: 47.6 µg/mL
[3]; 75 mg/animal, Male, Study Day 1, read-out: Synovia Tmax
  Tmax: 120 h
[3]; [7]
  AUC(0-t): 11300 µg·h/mL
[3]; 150 mg/animal, Female, Study Day 1, read-out: Synovia Cmax
  Cmax: 46.1 µg/mL
[3]; 150 mg/animal, Female, Study Day 1, read-out: Synovia Tmax
  Tmax: 204 h
[3]; [8]
  AUC(0-t): 12500 µg·h/mL
[3]; 150 mg/animal, Male, Study Day 1, read-out: Synovia Cmax
  Cmax: 63.2 µg/mL
[3]; 150 mg/animal, Male, Study Day 1, read-out: Synovia Tmax
  Tmax: 120 h
[3]; [12]
  concentration at 4 weeks: 1 µM
[3]; [13]
  concentration at 4 weeks: 13 µM
[3]; both sexes, intra-articular, calculated, read-out: Tmax, synovial fluid (converted)
  Tmax: ~120 h
[3]; both sexes, intra-articular, highest dose (150 mg), read-out: Cmax, synovial fluid
  Cmax: 50 µg/mL
